Source: ChEMBL document CHEMBL1201862, “PubChem BioAssay data set” (2004)
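Method: 48-hour compound exposure of cells in 96-well plates, five concentrations, linear interpolation of endpoints. GI50 = concentration required for 50% inhibition of growth.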 Activity calls are given as the source filed them. Rule as the data show it: active = GI50 up to about 1.1 µM and inactive = higher.

Key:
Experiment in all cases: NCI-60 cell line screen, 48 h
UACC-257 = system: UACC-257
SF-539 = system: SF-539
CCRF-CEM = system: CCRF-CEM
A498 = system: A498
MDA-N = system: MDA-N
OVCAR-5 = system: OVCAR-5
M14 = system: M14
SW-620 = system: SW-620
NCI-H23 = system: NCI-H23
RXF 393 = system: RXF 393
KM12 = system: KM12
OVCAR-8 = system: OVCAR-8
SF-268 = system: SF-268
NCI-H460 = system: NCI-H460
TK-10 = system: TK-10
OVCAR-3 = system: OVCAR-3
NCI/ADR-RES = system: NCI/ADR-RES
BT-549 = system: BT-549
HL-60 = system: HL-60
HOP-62 = system: HOP-62
MDA-MB-435 = system: MDA-MB-435
NCI-H226 = system: NCI-H226
NCI-H522 = system: NCI-H522
HT-29 = system: HT-29
SN12C = system: SN12C
SF-295 = system: SF-295
EKVX = system: EKVX
A549 = system: A549
HCT-15 = system: HCT-15
HCC 2998 = system: HCC 2998
MCF7 = system: MCF7
Malme-3M = system: Malme-3M
MDA-MB-231 = system: MDA-MB-231
ACHN = system: ACHN
DU-145 = system: DU-145
UACC-62 = system: UACC-62
SK-MEL-5 = system: SK-MEL-5
SNB-19 = system: SNB-19
SK-MEL-28 = system: SK-MEL-28
HCT-116 = system: HCT-116
LOX IMVI = system: LOX IMVI
RPMI-8226 = system: RPMI-8226
K562 = system: K562
U-251 = system: U-251
SK-MEL-2 = system: SK-MEL-2
Hs-578T = system: Hs-578T
COLO 205 = system: COLO 205
PC-3 = system: PC-3
786-0 = system: 786-0
IGROV-1 = system: IGROV-1
SR = system: SR
OVCAR-4 = system: OVCAR-4
UO-31 = system: UO-31
SNB-75 = system: SNB-75
HOP-92 = system: HOP-92
CAKI-1 = system: CAKI-1
SK-OV-3 = system: SK-OV-3
T47D = system: T47D
MOLT-4 = system: MOLT-4

## CC(=O)c1ccc(Oc2c3ccccc3nc3ccccc23)cc1
UACC-257
  GI50: 5.68 µM (inactive)
SF-539
  GI50: 2.3 µM (inactive)
CCRF-CEM
  GI50: 2.82 µM (inactive)
A498
  GI50: 16.1 µM (inactive)
MDA-N
  GI50: 4.27 µM (inactive)
OVCAR-5
  GI50: 9.68 µM (inactive)
M14
  GI50: 4.35 µM (inactive)
SW-620
  GI50: 4.33 µM (inactive)
NCI-H23
  GI50: 22.5 µM (inactive)
RXF 393
  GI50: 7.91 µM (inactive)
KM12
  GI50: 7 µM (inactive)
OVCAR-8
  GI50: 7.83 µM (inactive)
SF-268
  GI50: 5.18 µM (inactive)
NCI-H460
  GI50: 15.4 µM (inactive)
TK-10
  GI50: 6.76 µM (inactive)
OVCAR-3
  GI50: 7.53 µM (inactive)
NCI/ADR-RES
  GI50: 11.3 µM (inactive)
BT-549
  GI50: 12.5 µM (inactive)
HL-60
  GI50: 0.207 µM (active)
HOP-62
  GI50: 14.4 µM (inactive)
MDA-MB-435
  GI50: 3.27 µM (inactive)
NCI-H226
  GI50: 9.1 µM (inactive)
NCI-H522
  GI50: 12.2 µM (inactive)
HT-29
  GI50: 2.73 µM (inactive)
SN12C
  GI50: 5.08 µM (inactive)
SF-295
  GI50: 14.6 µM (inactive)
EKVX
  GI50: 17.5 µM (inactive)
A549
  GI50: 9.35 µM (inactive)
HCT-15
  GI50: 4.01 µM
HCC 2998
  GI50: 9.48 µM (inactive)
MCF7
  GI50: 3.22 µM (inactive)
Malme-3M
  GI50: 12.6 µM (inactive)
MDA-MB-231
  GI50: 11.6 µM (inactive)
ACHN
  GI50: 4.15 µM (inactive)
DU-145
  GI50: 4.5 µM (inactive)
UACC-62
  GI50: 6.41 µM (inactive)
SK-MEL-5
  GI50: 14.9 µM (inactive)
SNB-19
  GI50: 18.7 µM (inactive)
SK-MEL-28
  GI50: 14.7 µM (inactive)
HCT-116
  GI50: 2.7 µM (inactive)
LOX IMVI
  GI50: 5.86 µM (inactive)
RPMI-8226
  GI50: 2.77 µM (inactive)
K562
  GI50: 3.41 µM (inactive)
U-251
  GI50: 11.6 µM (inactive)
SK-MEL-2
  GI50: 8.59 µM (inactive)
Hs-578T
  GI50: 8.61 µM (inactive)
COLO 205
  GI50: 2.79 µM (inactive)
PC-3
  GI50: 6.89 µM (inactive)
786-0
  GI50: 3.4 µM (inactive)
IGROV-1
  GI50: 4.89 µM (inactive)
SR
  GI50: 1.01 µM (active)
OVCAR-4
  GI50: 5.93 µM (inactive)
UO-31
  GI50: 3.83 µM (inactive)
SNB-75
  GI50: 16.1 µM (inactive)
HOP-92
  GI50: 12.4 µM (inactive)
CAKI-1
  GI50: 4.69 µM (inactive)
SK-OV-3
  GI50: 15.7 µM (inactive)
T47D
  GI50: 3.72 µM (inactive)

## Fc1cc(C2=C[C@H](c3ccc(Cl)cc3)NC(=S)N2)c(Cl)cc1Cl
UACC-257
  GI50: 31.6 µM (inactive)
SF-539
  GI50: > 100 µM (inactive)
CCRF-CEM
  GI50: 28.9 µM (inactive)
MOLT-4
  GI50: 15.6 µM (inactive)
A498
  GI50: 27.7 µM (inactive)
MDA-N
  GI50: 47.4 µM (inactive)
OVCAR-5
  GI50: > 100 µM (inactive)
M14
  GI50: 54.3 µM (inactive)
SW-620
  GI50: 70.6 µM (inactive)
NCI-H23
  GI50: 63.8 µM (inactive)
RXF 393
  GI50: 31.1 µM (inactive)
KM12
  GI50: 49.4 µM (inactive)
OVCAR-8
  GI50: 39.9 µM (inactive)
SF-268
  GI50: 65.8 µM (inactive)
NCI-H460
  GI50: 34 µM (inactive)
TK-10
  GI50: 45.1 µM (inactive)
OVCAR-3
  GI50: 33.1 µM (inactive)
NCI/ADR-RES
  GI50: 64.1 µM (inactive)
BT-549
  GI50: > 100 µM (inactive)
HL-60
  GI50: 20.6 µM (inactive)
HOP-62
  GI50: 48.2 µM (inactive)
MDA-MB-435
  GI50: 43.9 µM (inactive)
NCI-H226
  GI50: 88.7 µM (inactive)
NCI-H522
  GI50: 34 µM (inactive)
HT-29
  GI50: 36.5 µM (inactive)
SN12C
  GI50: 29.3 µM (inactive)
SF-295
  GI50: 28.2 µM (inactive)
EKVX
  GI50: 31.6 µM (inactive)
A549
  GI50: 47.3 µM (inactive)
HCT-15
  GI50: 46.8 µM
HCC 2998
  GI50: 23.3 µM (inactive)
MCF7
  GI50: 31.2 µM (inactive)
Malme-3M
  GI50: > 100 µM (inactive)
MDA-MB-231
  GI50: 23.7 µM (inactive)
ACHN
  GI50: 37.8 µM (inactive)
DU-145
  GI50: 62.8 µM (inactive)
UACC-62
  GI50: 57 µM (inactive)
SK-MEL-5
  GI50: 11.6 µM (inactive)
SNB-19
  GI50: 76.7 µM (inactive)
SK-MEL-28
  GI50: > 100 µM (inactive)
HCT-116
  GI50: 35.8 µM (inactive)
LOX IMVI
  GI50: 48.6 µM (inactive)
RPMI-8226
  GI50: 14.9 µM (inactive)
K562
  GI50: 5.62 µM (inactive)
U-251
  GI50: 29.6 µM (inactive)
SK-MEL-2
  GI50: 27.2 µM (inactive)
Hs-578T
  GI50: > 100 µM (inactive)
COLO 205
  GI50: 47 µM (inactive)
PC-3
  GI50: 28.3 µM (inactive)
786-0
  GI50: 47.9 µM (inactive)
IGROV-1
  GI50: 41.2 µM (inactive)
SR
  GI50: 40.6 µM (inactive)
OVCAR-4
  GI50: 35.7 µM (inactive)
UO-31
  GI50: 42.2 µM (inactive)
SNB-75
  GI50: 37.6 µM (inactive)
HOP-92
  GI50: 27.2 µM (inactive)
CAKI-1
  GI50: 43 µM (inactive)
SK-OV-3
  GI50: > 100 µM (inactive)
T47D
  GI50: 19.2 µM (inactive)

## Cc1cc(N(CCOS(C)(=O)=O)CCOS(C)(=O)=O)ccc1/C=N/c1ccc(-c2csc(-c3ccccc3)n2)c(Cl)c1
UACC-257
  GI50: 20.4 µM (inactive)
SF-539
  GI50: 3.94 µM (inactive)
CCRF-CEM
  GI50: 1.1 µM (active)
MOLT-4
  GI50: 2.43 µM (inactive)
A498
  GI50: 1.6 µM (inactive)
MDA-N
  GI50: 3.78 µM (inactive)
OVCAR-5
  GI50: 17.3 µM (inactive)
M14
  GI50: 8.67 µM (inactive)
SW-620
  GI50: 5.2 µM (inactive)
NCI-H23
  GI50: 5.98 µM (inactive)
RXF 393
  GI50: 2.12 µM (inactive)
KM12
  GI50: 11.2 µM (inactive)
OVCAR-8
  GI50: 15.9 µM (inactive)
SF-268
  GI50: 8.63 µM (inactive)
NCI-H460
  GI50: 0.0647 µM (active)
TK-10
  GI50: 10.5 µM (inactive)
OVCAR-3
  GI50: 8.65 µM (inactive)
NCI/ADR-RES
  GI50: 13.3 µM (inactive)
BT-549
  GI50: 19.2 µM (inactive)
HL-60
  GI50: 2.45 µM (inactive)
HOP-62
  GI50: 6.05 µM (inactive)
MDA-MB-435
  GI50: 9.79 µM (inactive)
NCI-H226
  GI50: 9.12 µM (inactive)
NCI-H522
  GI50: 1.63 µM (inactive)
HT-29
  GI50: 9.91 µM (inactive)
SN12C
  GI50: 8.81 µM (inactive)
SF-295
  GI50: 2.36 µM (inactive)
EKVX
  GI50: 4.47 µM (inactive)
A549
  GI50: 1.95 µM (inactive)
HCT-15
  GI50: 8.04 µM
HCC 2998
  GI50: 2.93 µM (inactive)
MCF7
  GI50: 4.27 µM (inactive)
Malme-3M
  GI50: 11.9 µM (inactive)
MDA-MB-231
  GI50: 20.6 µM (inactive)
ACHN
  GI50: 0.575 µM (active)
DU-145
  GI50: 1.67 µM (inactive)
UACC-62
  GI50: 2.95 µM (inactive)
SK-MEL-5
  GI50: 7.6 µM (inactive)
SNB-19
  GI50: 4.66 µM (inactive)
SK-MEL-28
  GI50: 21.6 µM (inactive)
HCT-116
  GI50: 12.8 µM (inactive)
LOX IMVI
  GI50: 6.73 µM (inactive)
RPMI-8226
  GI50: 11.2 µM (inactive)
K562
  GI50: 6.28 µM (inactive)
U-251
  GI50: 16.1 µM (inactive)
SK-MEL-2
  GI50: 21 µM (inactive)
Hs-578T
  GI50: 18 µM (inactive)
COLO 205
  GI50: 1.64 µM (inactive)
PC-3
  GI50: 14.8 µM (inactive)
786-0
  GI50: 2.05 µM (inactive)
IGROV-1
  GI50: 8.2 µM (inactive)
SR
  GI50: 1.54 µM (inactive)
OVCAR-4
  GI50: 16 µM (inactive)
UO-31
  GI50: 9.75 µM (inactive)
SNB-75
  GI50: 1.8 µM (inactive)
HOP-92
  GI50: 9.64 µM (inactive)
CAKI-1
  GI50: 0.179 µM (active)
SK-OV-3
  GI50: 3.37 µM (inactive)
T47D
  GI50: 15.4 µM (inactive)
